Results: US10717090B2, “Depression of copper and iron sulfides in molybdenite flotation circuits” (TESSENDERLO KERLEY, INC., priority 2014, dated 2020)

Legend:
[1] = H2S evolution vs. pH in simulated flotation process (headspace analysis); type: physicochemical; conditions: pH adjusted to between 9 and 9.5, ambient temperature
Protocol: The H2S evolution due to the decomposition of depressant reagents during storage, handling and application presents the highest associated hazard with regards to health and safety (HSE). Testing of TKI's Alkaline Polysulfide products against the standard (NaHS reagent) was conducted in a simulated flotation process using lab apparatus to determine the amount of H2S evolved at various pH's. The tests were conducted using the following testing protocol; • All tests were ran at ambient temperatures using tap water. Add 500 ml of tap water to […] glass apparatus, check pH and temp, start and maintain stirring throughout test. • Add Ca(OH)2 to raise pH to approximately 10.5 • Add 5 mL of reagent. • Allow to stabilize for 2 min, with cracking of stopper to equilibrate at 1 min. • Check pH, temperature and H2S in VP using analyzer. • Add H2SO4 to decrease pH to ˜9. • Allow to stabilize for 2 min, with cracking of stopper to equilibrate at 1 min. • Check pH, temperature and H2S in VP using analyzer. • Repeat last three Steps for pH 9, 8 and 7 if applicable.
Note the H2S in the vapor phase above the polysulfide samples increased to 1500 ppm at pH near 8.2, while this 1500 ppm level was reached by NaHS samples at pH 9.1 to 9.3. […] This would translate into a less hazardous environment in applications where the process is run ran at lower pH's (˜9) utilizing for example CO2 as a flotation medium or modifying agent.
Values above 1500 ppm are lower limits, as the H2S meter maximum reading was 2000 PPM. […] Therefore, this invention may show significant health and safety benefits even at pH near 8.

mammals = conditions: cited from earlier work

Row | Molecule | H2S in vapor phase [1] | LD50 (mammals)
1 | Sodium Polysulfide [NaPS] | remained low | 
2 | Calcium Polysulfide [CaPS] | remained low | about 0.8 grams per kilogram of body weight
3 | S [NaHS, Sodium hydrosulfide, reference compound] | 1500 ppm | 
4 | Potassium Polysulfide [KPS] | presumably KPS remained low | 
